Measured values published in ChEMBL document CHEMBL1177833, “Synthesis and biological activity of 2-hydroxynicotinoyl-serine-butyl esters related to antibiotic UK-3A” (Bioorg Med Chem Lett, 2010).
≈ marks a conversion by molar mass, not a printed value.

Key:
Escherichia coli [1] = experiment: Antimicrobial activity against Escherichia coli after 18 to 24 hrs; assay type: functional
Escherichia coli [2] = experiment: Antimicrobial activity against Escherichia coli at 20 uL after 18 to 24 hrs by disk diffusion method; assay type: functional
Bacillus subtilis [3] = experiment: Antimicrobial activity against Bacillus subtilis after 18 to 24 hrs; assay type: functional
Bacillus subtilis [4] = experiment: Antimicrobial activity against Bacillus subtilis at 20 uL after 18 to 24 hrs by disk diffusion method; assay type: functional
Staphylococcus aureus [5] = experiment: Antimicrobial activity against Staphylococcus aureus after 18 to 24 hrs; assay type: functional
Staphylococcus aureus [6] = experiment: Antimicrobial activity against Staphylococcus aureus at 20 uL after 18 to 24 hrs by disk diffusion method; assay type: functional
Candida albicans [7] = experiment: Antimicrobial activity against Candida albicans after 18 to 24 hrs; assay type: functional
Artemia salina [8] = experiment: Toxicity in Artemia salina assessed as mortality at 100 ppm after 24 hrs; assay type: organism-based; details: in vivo
Artemia salina [9] = experiment: Toxicity in Artemia salina assessed as mortality at 250 ppm after 24 hrs; assay type: organism-based; details: in vivo
Artemia salina [10] = experiment: Toxicity in Artemia salina assessed as mortality at 500 ppm after 24 hrs; assay type: organism-based; details: in vivo
Artemia salina [11] = experiment: Toxicity in Artemia salina assessed as mortality at 1000 ppm after 24 hrs; assay type: organism-based; details: in vivo
Artemia salina [12] = experiment: Toxicity in Artemia salina after 24 hrs; assay type: organism-based; details: in vivo
Candida albicans [13] = experiment: Antimicrobial activity against Candida albicans after 18 to 24 hrs at 20 uL by disk diffusion assay; assay type: functional

| Compound | MIC (Escherichia coli [1]) | diameter of the inhibition zone (DIZ) (Escherichia coli [2]) | MIC (Bacillus subtilis [3]) | diameter of the inhibition zone (DIZ) (Bacillus subtilis [4]) | MIC (Staphylococcus aureus [5]) | diameter of the inhibition zone (DIZ) (Staphylococcus aureus [6]) | MIC (Candida albicans [7]) | LC50 (Artemia salina [8]) | LC50 (Artemia salina [9]) | LC50 (Artemia salina [10]) | LC50 (Artemia salina [11]) | LC50 (Artemia salina [12]) | diameter of the inhibition zone (DIZ) (Candida albicans [13]) |
| --- | --- | --- | --- | --- | --- | --- | --- | --- | --- | --- | --- | --- | --- |
| CCCCOC(=O)[C@H](COC(=O)CCc1ccccc1)NC(=O)c1cccnc1O | 1000 µg/mL (≈ 2410 µM) | 7.83 mm | 500 µg/mL (≈ 1210 µM) | 7 mm | 1000 µg/mL (≈ 2410 µM) | 7.5 mm | 1000 µg/mL (≈ 2410 µM) | 26.67 ppm | 55.58 ppm | 76.67 ppm | 100 ppm | 266.83 ppm | 7.5 mm |
| CCCCCCCC(=O)OC[C@H](NC(=O)c1cccnc1O)C(=O)OCCCC | 75 µg/mL (≈ 184 µM) | 7 mm | 50 µg/mL (≈ 122 µM) | 7 mm | 100 µg/mL (≈ 245 µM) | 7 mm | 250 µg/mL (≈ 612 µM) | 0 ppm | 0 ppm | 2.78 ppm | 11.02 ppm | 3620.41 ppm | 7.83 mm |
| CCCCOC(=O)[C@H](COC(C)=O)NC(=O)c1cccnc1O | 250 µg/mL (≈ 771 µM) | 7 mm | 250 µg/mL (≈ 771 µM) | 7 mm | 250 µg/mL (≈ 771 µM) | 7.5 mm | 500 µg/mL (≈ 1540 µM) | 4.94 ppm | 9.7 ppm | 39.62 ppm | 58.66 ppm | 811.01 ppm | 7.5 mm |
| CCCC[C@H]1C(=O)O[C@H](C)[C@H](NC(=O)c2cccc(NC=O)c2O)C(=O)O[C@@H](C)[C@@H]1OC(=O)CC(C)C [ANTIMYCIN A3] | 50 µg/mL (≈ 96 µM) | 7 mm | 250 µg/mL (≈ 480 µM) | 8.5 mm | 250 µg/mL (≈ 480 µM) | 8 mm | 50 µg/mL (≈ 96 µM) |  |  |  |  |  | 10 mm |
